# From US20230062100A1, “SUBSTITUTED AMINOQUINOLONES AS DGKALPHA INHIBITORS FOR IMMUNE ACTIVATION” (Bayer Aktiengesellschaft, priority 2019, published 2023)
# Molecular target: DGKα (Homo sapiens, UniProt P23743)
# Experiment: Human DGKα kinase activity inhibition assay (ADP-Glo)
# Format: biochemical
# Details: in vitro human DGKα kinase activity inhibition assay
# Summary of the method: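 C-terminally FLAG-tagged full-length human DGKα from baculovirus/insect cells (typically ~0.1 nM) phosphorylated 1,2-dioleoyl-sn-glycerol in octyl-β-D-glucopyranoside micelles in MOPS pH 7.4. ADP formed was quantified by ADP-Glo luminescence after 1 h ATP depletion at 22 °C.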
# Chain of DGKα (P23743 with tags, fused parts or gaps): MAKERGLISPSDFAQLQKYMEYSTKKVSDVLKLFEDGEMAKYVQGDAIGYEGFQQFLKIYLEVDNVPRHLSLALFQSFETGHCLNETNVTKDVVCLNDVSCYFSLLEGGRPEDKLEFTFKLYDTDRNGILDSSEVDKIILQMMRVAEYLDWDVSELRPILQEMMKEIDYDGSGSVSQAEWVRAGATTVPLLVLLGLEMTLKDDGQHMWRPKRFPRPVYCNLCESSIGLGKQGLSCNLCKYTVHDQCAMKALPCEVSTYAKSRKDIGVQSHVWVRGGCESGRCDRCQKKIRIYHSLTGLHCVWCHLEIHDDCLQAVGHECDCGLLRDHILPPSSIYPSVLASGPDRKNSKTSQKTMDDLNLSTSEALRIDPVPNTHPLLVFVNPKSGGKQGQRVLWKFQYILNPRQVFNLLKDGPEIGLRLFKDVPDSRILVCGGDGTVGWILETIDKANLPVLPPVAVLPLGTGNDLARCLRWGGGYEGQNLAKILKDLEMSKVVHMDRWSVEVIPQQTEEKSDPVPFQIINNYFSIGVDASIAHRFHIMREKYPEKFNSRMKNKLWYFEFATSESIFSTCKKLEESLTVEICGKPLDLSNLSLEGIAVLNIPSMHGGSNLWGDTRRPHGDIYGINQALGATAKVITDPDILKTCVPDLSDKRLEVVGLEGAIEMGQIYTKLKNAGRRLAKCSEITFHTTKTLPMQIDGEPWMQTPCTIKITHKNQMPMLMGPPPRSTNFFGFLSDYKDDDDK
row,SMILES,IC50
1,"Cn1c(=O)c(C#N)c(N2CCC(Oc3cccc4ocnc34)CC2)c2ccccc21 [Example 27, 4-{4-[(1,3-benzoxazol-4-yl)oxy]piperidin-1-yl}-1-methyl-2-oxo-1,2-dihydroquinoline-3-carbonitrile]",318 nM
2,"Cn1c(=O)c(C#N)c(N2CCC(Oc3ccc(C(N)=O)cc3)CC2)c2ccccc21 [Example 35, 4-{[1-(3-cyano-1-methyl-2-oxo-1,2-dihydroquinolin-4-yl)piperidin-4-yl]oxy}benzamide]",646 nM
3,"COc1cccc(COC2CCN(c3c(C#N)c(=O)n(C)c4ccccc34)CC2)c1 [Example 115, 4-{4-[(3-methoxyphenyl)methoxy]piperidin-1-yl}-1-methyl-2-oxo-1,2-dihydroquinoline-3-carbonitrile]",29 nM
4,"Cn1c(=O)c(C#N)c(N2CCC(C)(Oc3ccc(Br)cc3)CC2)c2ccccc21 [Example 42, 4-[4-(4-bromophenoxy)-4-methylpiperidin-1-yl]-1-methyl-2-oxo-1,2-dihydroquinoline-3-carbonitrile]",27 nM
5,"Cn1c(=O)c(C(N)=O)c(N2CCC(Oc3ccc(OC(F)(F)F)cc3)CC2)c2cccc(Cl)c21 [Example 164, 8-chloro-1-methyl-2-oxo-4-{4-[4-(trifluoromethoxy)phenoxy]piperidin-1-yl}-1,2-dihydroquinoline-3-carboxamide]",37 nM
6,"Cn1c(=O)c(C#N)c(N2CCC(Oc3ccccc3Cl)CC2)c2ccccc21 [Example 16, 4-[4-(2-chlorophenoxy)piperidin-1-yl]-1-methyl-2-oxo-1,2-dihydroquinoline-3-carbonitrile]",33 nM
7,"Cn1c(=O)c(C#N)c(N2CCC(Oc3ccc(C(F)(F)F)cc3)CC2)c2ccc(N3CCCC3=O)cc21 [Example 86, 1-methyl-2-oxo-7-(2-oxopyrrolidin-1-yl)-4-{4-[4-(trifluoromethyl)phenoxy]piperidin-1-yl}-1,2-dihydroquinoline-3-carbonitrile]",32 nM
8,"CC(C)Oc1ccc(OC2CCN(c3c(C#N)c(=O)n(C)c4ccccc34)CC2)cc1 [Example 47, 1-methyl-2-oxo-4-(4-{4-[(propan-2-yl)oxy]phenoxy}piperidin-1-yl)-1,2-dihydroquinoline-3-carbonitrile]",8.6 nM
9,"Cn1c(=O)c(C#N)c(N2CCC(Oc3cnc(C(F)(F)F)nc3)CC2)c2ccccc21 [Example 28, 1-methyl-2-oxo-4-(4-{[2-(trifluoromethyl)pyrimidin-5-yl]oxy}piperidin-1-yl)-1,2-dihydroquinoline-3-carbonitrile]",521 nM
10,"Cn1c(=O)c(C#N)c(N2CCC(Oc3ccc(C4CC4)cc3)CC2)c2ccccc21 [Example 37, 4-[4-(4-cyclopropylphenoxy)piperidin-1-yl]-1-methyl-2-oxo-1,2-dihydroquinoline-3-carbonitrile]",10 nM
11,"Cc1cc(Br)c2c(c1)c(N1CCC(Oc3ccc(OC(F)(F)F)cc3)CC1)c(C#N)c(=O)n2C [Example 168, 8-bromo-1,6-dimethyl-2-oxo-4-{4-[4-(trifluoromethoxy)phenoxy]piperidin-1-yl}-1,2-dihydroquinoline-3-carbonitrile]",556 nM
12,"Cn1c(=O)c(C#N)c(N2CCC(COc3ccccc3Cl)CC2)c2ccccc21 [Example 120, 4-{4-[(2-chlorophenoxy)methyl]piperidin-1-yl}-1-methyl-2-oxo-1,2-dihydroquinoline-3-carbonitrile]",51 nM
13,"Cn1c(=O)c(C#N)c(N2CCC(Oc3ccc(N4CCCCC4=O)cc3)CC2)c2ccccc21 [Example 23, 1-methyl-2-oxo-4-{4-[4-(2-oxopiperidin-1-yl)phenoxy]piperidin-1-yl}-1,2-dihydroquinoline-3-carbonitrile]",181 nM
14,"Cn1c(=O)c(C#N)c(N2CCC(Oc3ccc(OC(F)(F)F)cc3)CC2)c2cc(Cl)ccc21 [Example 157, 6-chloro-1-methyl-2-oxo-4-{4-[4-(trifluoromethoxy)phenoxy]piperidin-1-yl}-1,2-dihydroquinoline-3-carbonitrile]",1240 nM
15,"Cn1c(=O)c(C#N)c(N2CCC(Oc3ccc(OC(F)(F)F)cc3)CC2)c2cccc(F)c21 [Example 129, 8-fluoro-1-methyl-2-oxo-4-{4-[4-(trifluoromethoxy)phenoxy]piperidin-1-yl}-1,2-dihydroquinoline-3-carbonitrile]",29 nM
16,"Cn1c(=O)c(C#N)c(N2CCC(Oc3cccc(Cl)c3)CC2)c2ccc(C3COC3)cc21 [Example 73, 4-[4-(3-chlorophenoxy)piperidin-1-yl]-1-methyl-7-(oxetan-3-yl)-2-oxo-1,2-dihydroquinoline-3-carbonitrile]",13 nM
17,"Cn1c(=O)c(C#N)c(N2CCC(Oc3ccc(F)cc3)CC2)c2ccccc21 [Example 6, 4-[4-(4-fluorophenoxy)piperidin-1-yl]-1-methyl-2-oxo-1,2-dihydroquinoline-3-carbonitrile]",8.4 nM
18,"COc1ccc(COC2CCN(c3c(C#N)c(=O)n(C)c4ccccc34)CC2)cc1 [Example 109, 4-{4-[(4-methoxyphenyl)methoxy]piperidin-1-yl}-1-methyl-2-oxo-1,2-dihydroquinoline-3-carbonitrile]",16 nM
19,"Cc1ccc2c(c1)c(N1CCC(Oc3ccccc3Cl)CC1)c(C(N)=O)c(=O)n2C [Example 163, 4-[4-(2-chlorophenoxy)piperidin-1-yl]-1,6-dimethyl-2-oxo-1,2-dihydroquinoline-3-carboxamide]",59 nM
20,"Cn1c(=O)c(C(N)=O)c(N2CCC(Oc3ccc(Cl)cc3)CC2)c2ccc(N3CCCC3=O)cc21 [Example 97, 4-[4-(4-chlorophenoxy)piperidin-1-yl]-1-methyl-2-oxo-7-(2-oxopyrrolidin-1-yl)-1,2-dihydroquinoline-3-carboxamide]",122 nM
21,"Cn1c(=O)c(C#N)c(N2CCC(Oc3cccc(F)c3)CC2)c2ccccc21 [Example 7, 4-[4-(3-fluorophenoxy)piperidin-1-yl]-1-methyl-2-oxo-1,2-dihydroquinoline-3-carbonitrile]",8.6 nM
22,"Cc1ccccc1OC1CCN(c2c(C#N)c(=O)n(C)c3ccccc23)CC1 [Example 14, 1-methyl-4-[4-(2-methylphenoxy)piperidin-1-yl]-2-oxo-1,2-dihydroquinoline-3-carbonitrile]",14 nM
23,"Cn1c(=O)c(C#N)c(N2CCC(Oc3ccc(OC(F)(F)F)cc3)CC2)c2cccc(Br)c21 [Example 130, 8-bromo-1-methyl-2-oxo-4-{4-[4-(trifluoromethoxy)phenoxy]piperidin-1-yl}-1,2-dihydroquinoline-3-carbonitrile]",202 nM

# The next molecules have a lower IC50 than those just listed; values first:
row,IC50,SMILES
1,6.2 nM,"Cc1cccc(OC2CCN(c3c(C#N)c(=O)n(C)c4ccccc34)CC2)c1 [Example 3, 1-methyl-4-[4-(3-methylphenoxy)piperidin-1-yl]-2-oxo-1,2-dihydroquinoline-3-carbonitrile]"
2,4.2 nM,"Cc1ccc(OC2CCN(c3c(C#N)c(=O)n(C)c4ccccc34)CC2)cc1 [Example 1, 1-methyl-4-[4-(4-methylphenoxy)piperidin-1-yl]-2-oxo-1,2-dihydroquinoline-3-carbonitrile]"
3,6.1 nM,"CCOC(=O)c1ccc(OC2CCN(c3c(C(N)=O)c(=O)n(C)c4ccccc34)CC2)cc1 [Example 51, ethyl 4-{[1-(3-carbamoyl-1-methyl-2-oxo-1,2-dihydroquinolin-4-yl)piperidin-4-yl]oxy}benzoate]"
4,7.1 nM,"Cc1ccc(COC2CCN(c3c(C(N)=O)c(=O)n(C)c4ccccc34)CC2)cc1 [Example 122, 1-methyl-4-{4-[(4-methylphenyl)methoxy]piperidin-1-yl}-2-oxo-1,2-dihydroquinoline-3-carboxamide]"
5,7.7 nM,"Cn1c(=O)c(C#N)c(N2CCC(Oc3ccccc3)CC2)c2ccccc21 [Example 5, 1-methyl-2-oxo-4-(4-phenoxypiperidin-1-yl)-1,2-dihydroquinoline-3-carbonitrile]"
6,3.1 nM,"Cc1ccc2c(c1)c(N1CCC(Oc3ccc(OC(F)(F)F)cc3)CC1)c(C(N)=O)c(=O)n2C [Example 160, 1,6-dimethyl-2-oxo-4-{4-[4-(trifluoromethoxy)phenoxy]piperidin-1-yl}-1,2-dihydroquinoline-3-carboxamide]"
7,7.3 nM,"COc1ccc2c(N3CCC(Oc4ccc(Cl)cc4)CC3)c(C#N)c(=O)n(C)c2c1 [Example 65, 4-[4-(4-chlorophenoxy)piperidin-1-yl]-7-methoxy-1-methyl-2-oxo-1,2-dihydroquinoline-3-carbonitrile]"
8,3 nM,"COCCOc1ccc2c(N3CCC(Oc4ccc(OC(F)(F)F)cc4)CC3)c(C#N)c(=O)n(C)c2c1 [Example 81, 7-(2-methoxyethoxy)-1-methyl-2-oxo-4-{4-[4-(trifluoromethoxy)phenoxy]piperidin-1-yl}-1,2-dihydroquinoline-3-carbonitrile]"
9,4.7 nM,"Cc1ccc2c(c1)c(N1CCC(Oc3ccc(OC(F)(F)F)cc3)CC1)c(C#N)c(=O)n2C [Example 143, 1,6-dimethyl-2-oxo-4-{4-[4-(trifluoromethoxy)phenoxy]piperidin-1-yl}-1,2-dihydroquinoline-3-carbonitrile]"
10,1.7 nM,"Cn1c(=O)c(C(N)=O)c(N2CCC(Oc3cccc(Cl)c3)CC2)c2ccccc21 [Example 49, 4-[4-(3-chlorophenoxy)piperidin-1-yl]-1-methyl-2-oxo-1,2-dihydroquinoline-3-carboxamide]"
11,1.7 nM,"COc1ccc2c(N3CCC(Sc4ccccc4)CC3)c(C#N)c(=O)n(C)c2c1 [Example 90, 7-methoxy-1-methyl-2-oxo-4-[4-(phenylsulfanyl)piperidin-1-yl]-1,2-dihydroquinoline-3-carbonitrile]"
12,4.5 nM,"Cn1c(=O)c(C#N)c(N2CCC(Cc3ccccc3)CC2)c2ccccc21 [Example 91, 4-(4-benzylpiperidin-1-yl)-1-methyl-2-oxo-1,2-dihydroquinoline-3-carbonitrile]"
13,7.7 nM,"Cc1ccc2c(c1)c(N1CCC(Oc3ccc(F)cc3)CC1)c(C#N)c(=O)n2C [Example 141, 4-[4-(4-fluorophenoxy)piperidin-1-yl]-1,6-dimethyl-2-oxo-1,2-dihydroquinoline-3-carbonitrile]"
